From PMC9065200, “Engineering of donor-acceptor-donor curcumin analogues as near-infrared fluorescent probes for in vivo imaging of amyloid-β species” (Theranostics, 2022)

What was measured:
Aβ42 oligomers = target: T1, Aβ42 oligomers (Homo sapiens, UniProt P05067); test: fluorescence titration, one-site binding regression; conditions: read-out: Aβ oligomers / Kd
T1 construct: gene APP; commercial Abeta(1-42) peptide, cut from APP precursor; soluble oligomers prepared via HFIP/water, stirred 24-48 h at ~22 °C, confirmed by TEM
T1 sequence (P05067 672-713): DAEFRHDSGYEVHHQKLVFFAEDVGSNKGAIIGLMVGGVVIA
Source text: fluorescence titration, one-site binding regression on Aβ42 oligomers

Aβ42 monomers = target: T2, Aβ42 monomers (Homo sapiens, UniProt P05067); test: as above; conditions: read-out: Aβ monomers / Kd
T2 construct: gene APP; commercial Abeta(1-42) peptide (Nanjing Peptide Biotech), cut from APP precursor; monomer stock in hexafluoroisopropanol
T2 sequence (P05067 672-713): as above
Source text: fluorescence titration, one-site binding regression on Aβ42 monomers

Kd (Aβ42 oligomers): 167 ± 19.9 nM
Kd (Aβ42 monomers): 64.2 ± 5.38 nM
SMILES: CN(C)c1ccc2cc(/C=C/C3=CC(/C=C/C=C4N(C)c5ccccc5C4(C)C)=[O+][B-](F)(F)O3)ccc2c1 [compound 7, probe 7]
